Assay results reported in patent US8247377B2, “Non-steroidal glucocorticoid inhibitors and their use in treating inflammation, allergy and auto-immune conditions” (Glaxo Group Limited, priority 2006, dated 2012).

Tests used:
MMTV promoter = experiment: MMTV agonist assay in A549 MMTV cells; type: cell-based; settings: Homo sapiens, A549, 6 h, >85% = full agonist, >20% and <85% = partial or efficacy selective agonist, read-out: average maximum asymptote in the MMTV agonist assay
Summary of the method: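 A549 cells stably carrying an MMTV promoter-driven renilla luciferase reporter were exposed to compound for 6 h at 37 °C in DMEM with 10% FCS and 25 mM HEPES. Luminescence read after renilla substrate addition; pEC50 and maximum asymptote estimated from dose-response curves.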

progesterone receptor = biological target: T1, progesterone receptor (Homo sapiens, UniProt P06401); experiment: Assay for progesterone receptor activity (CV-1 cells, PRb-BacMam/MMTV-BacMam); type: cell-based; settings: CV-1 cells transduced with PRb-BacMam and MMTV-BacMam; read-out: pEC50 progesterone receptor activity (converted)
T1 construct: expressed in transfected cells; host or cells: CV-1 cells transduced with PRb-BacMam and MMTV-BacMam
T1 sequence (P06401 1-933): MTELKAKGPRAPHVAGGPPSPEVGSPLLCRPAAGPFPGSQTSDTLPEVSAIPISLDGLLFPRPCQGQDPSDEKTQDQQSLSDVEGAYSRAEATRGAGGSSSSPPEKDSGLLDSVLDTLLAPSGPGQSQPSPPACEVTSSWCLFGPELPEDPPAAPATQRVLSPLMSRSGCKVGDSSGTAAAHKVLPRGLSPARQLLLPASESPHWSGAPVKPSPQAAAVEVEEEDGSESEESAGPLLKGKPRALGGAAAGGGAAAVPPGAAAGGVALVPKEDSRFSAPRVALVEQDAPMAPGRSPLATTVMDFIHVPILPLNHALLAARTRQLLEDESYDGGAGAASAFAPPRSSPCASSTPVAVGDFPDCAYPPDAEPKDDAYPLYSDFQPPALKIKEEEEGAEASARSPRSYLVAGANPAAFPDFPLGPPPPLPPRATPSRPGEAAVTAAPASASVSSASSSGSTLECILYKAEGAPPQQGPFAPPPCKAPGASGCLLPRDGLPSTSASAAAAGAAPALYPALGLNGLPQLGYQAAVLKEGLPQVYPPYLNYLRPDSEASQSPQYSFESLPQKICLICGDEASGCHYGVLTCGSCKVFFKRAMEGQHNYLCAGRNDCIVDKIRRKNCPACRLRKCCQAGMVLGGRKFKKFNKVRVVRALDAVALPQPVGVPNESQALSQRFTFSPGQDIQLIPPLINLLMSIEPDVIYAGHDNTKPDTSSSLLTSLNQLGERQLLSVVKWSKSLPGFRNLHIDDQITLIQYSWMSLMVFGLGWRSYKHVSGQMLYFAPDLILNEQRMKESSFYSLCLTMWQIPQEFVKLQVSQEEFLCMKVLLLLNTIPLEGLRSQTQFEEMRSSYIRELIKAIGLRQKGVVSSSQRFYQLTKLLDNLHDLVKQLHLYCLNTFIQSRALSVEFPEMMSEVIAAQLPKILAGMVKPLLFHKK
Summary of the method: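 CV-1 cells co-transduced with PRb-BacMam and MMTV-BacMam (10% each), seeded onto compounds in DMEM with 10% serum. After 24 h, luminescence was read with Steadylite. pEC50 values were estimated from dose-response curves.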

glucocorticoid receptor = biological target: T2, glucocorticoid receptor (Homo sapiens, UniProt P04150); experiment: Glucocorticoid receptor binding assay (fluorescence polarisation); settings: competition with Alexa 555 fluorescently-labelled dexamethasone derivative, full length glucocorticoid receptor; read-out: glucocorticoid binding pIC50 (converted)
T2 construct: a partially purified full length glucocorticoid receptor
T2 sequence (P04150 1-777): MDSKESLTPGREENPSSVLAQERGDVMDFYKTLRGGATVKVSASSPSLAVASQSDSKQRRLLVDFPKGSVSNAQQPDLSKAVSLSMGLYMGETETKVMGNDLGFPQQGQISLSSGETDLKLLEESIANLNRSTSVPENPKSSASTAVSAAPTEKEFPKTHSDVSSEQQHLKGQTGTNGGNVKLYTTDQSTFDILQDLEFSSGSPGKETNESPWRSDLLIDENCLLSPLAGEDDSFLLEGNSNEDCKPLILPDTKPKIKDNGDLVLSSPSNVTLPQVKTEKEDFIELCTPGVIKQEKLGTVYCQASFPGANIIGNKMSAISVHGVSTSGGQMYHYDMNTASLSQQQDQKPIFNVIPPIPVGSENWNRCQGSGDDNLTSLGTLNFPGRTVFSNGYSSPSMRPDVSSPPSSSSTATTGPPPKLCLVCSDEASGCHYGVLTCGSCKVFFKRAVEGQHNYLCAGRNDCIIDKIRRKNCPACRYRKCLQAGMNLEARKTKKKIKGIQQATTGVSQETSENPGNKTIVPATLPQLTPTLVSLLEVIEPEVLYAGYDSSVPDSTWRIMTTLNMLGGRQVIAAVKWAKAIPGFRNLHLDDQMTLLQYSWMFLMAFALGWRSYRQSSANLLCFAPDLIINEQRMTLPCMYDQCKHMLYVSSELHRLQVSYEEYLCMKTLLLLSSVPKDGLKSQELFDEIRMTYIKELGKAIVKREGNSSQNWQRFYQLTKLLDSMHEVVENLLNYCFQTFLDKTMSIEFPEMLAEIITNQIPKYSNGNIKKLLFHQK
Summary of the method: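 Compounds in DMSO incubated with fluorescent dexamethasone and partially purified full-length GR plus stabilising buffer components, 2 hrs at room temperature in the dark. Displacement read as decrease in fluorescence polarisation; pIC50 estimated from dose-response curves.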

Structure (SMILES) | Emax (MMTV promoter) [%] | EC50 (progesterone receptor) [nM] | IC50 (glucocorticoid receptor) [nM]
CCN(CC(O)(CNC(=O)c1cnn(-c2ccc(F)cc2F)c1N)C(F)(F)F)C(=O)c1c(F)cccc1F (racemic) [Example 34 (racemic), 5-amino-1-(2,4-difluorophenyl)-N-(2-{[[(2,6-difluorophenyl)carbonyl](ethyl)amino]methyl}-3,3,3-trifluoro-2-hydroxypropyl)-1H-pyrazole-4-carboxamide] | > 85 | > 1000 | ≤ 316
CCN(CC(O)(CNC(=O)c1cnn(-c2cc(F)cc(F)c2)c1N)C(F)(F)F)C(=O)c1c(F)cccc1F (racemic) [Example 35 (racemic), 5-amino-1-(3,5-difluorophenyl)-N-(2-{[[(2,6-difluorophenyl)carbonyl](ethyl)amino]methyl}-3,3,3-trifluoro-2-hydroxypropyl)-1H-pyrazole-4-carboxamide] | > 85 | > 1000 | ≤ 316
CCN(CC(O)(CNC(=O)c1cnn(-c2cc(F)ccc2F)c1N)C(F)(F)F)C(=O)c1c(F)cccc1F (racemic) [Example 36 (racemic), 5-amino-1-(2,5-difluorophenyl)-N-(2-{[[(2,6-difluorophenyl)carbonyl](ethyl)amino]methyl}-3,3,3-trifluoro-2-hydroxypropyl)-1H-pyrazole-4-carboxamide] | > 85 | > 1000 | ≤ 316
CCN(CC(O)(CNC(=O)c1cnn(-c2c(F)cccc2F)c1N)C(F)(F)F)C(=O)c1c(F)cccc1F (racemic) [Example 37 (racemic), 5-amino-1-(2,6-difluorophenyl)-N-(2-{[[(2,6-difluorophenyl)carbonyl](ethyl)amino]methyl}-3,3,3-trifluoro-2-hydroxypropyl)-1H-pyrazole-4-carboxamide] | > 85 | > 1000 | ≤ 316
CCN(CC(O)(CNC(=O)c1cnn(-c2cccc(F)c2)c1N)C(F)(F)F)C(=O)c1c(F)cccc1F (racemic) [Example 38 (racemic), 5-amino-N-(2-{[[(2,6-difluorophenyl)carbonyl](ethyl)amino]methyl}-3,3,3-trifluoro-2-hydroxypropyl)-1-(3-fluorophenyl)-1H-pyrazole-4-carboxamide] | > 85 | > 1000 | ≤ 316
CCN(CC(O)(CNC(=O)c1cnn(-c2ccc(Cl)cc2)c1N)C(F)(F)F)C(=O)c1c(F)cccc1F (racemic) [Example 39 (racemic), 5-amino-1-(4-chlorophenyl)-N-(2-{[[(2,6-difluorophenyl)carbonyl](ethyl)amino]methyl}-3,3,3-trifluoro-2-hydroxypropyl)-1H-pyrazole-4-carboxamide] | > 85 | > 1000 | ≤ 316
CCN(CC(O)(CNC(=O)c1cnn(-c2cccc(Cl)c2)c1N)C(F)(F)F)C(=O)c1c(F)cccc1F (racemic) [Example 41 (racemic), 5-amino-1-(3-chlorophenyl)-N-(2-{[[(2,6-difluorophenyl)carbonyl](ethyl)amino]methyl}-3,3,3-trifluoro-2-hydroxypropyl)-1H-pyrazole-4-carboxamide] | > 85 | > 1000 | ≤ 316
CCN(CC(O)(CNC(=O)c1cnn(-c2ccccc2F)c1N)C(F)(F)F)C(=O)c1c(F)cccc1F (racemic) [Example 42 (racemic), 5-amino-N-(2-{[[(2,6-difluorophenyl)carbonyl](ethyl)amino]methyl}-3,3,3-trifluoro-2-hydroxypropyl)-1-(2-fluorophenyl)-1H-pyrazole-4-carboxamide] | > 85 | > 1000 | ≤ 316
Nc1c(C(=O)NCC(O)(CNC(=O)c2c(C(F)F)cccc2C(F)F)C(F)(F)F)cnn1-c1ccc(F)cc1 (racemic) [Example 43 (racemic), 5-Amino-N-{2-[({[2,6-bis(difluoromethyl)phenyl]carbonyl}amino)methyl]-3,3,3-trifluoro-2-hydroxypropyl}-1-(4-fluorophenyl)-1H-pyrazole-4-carboxamide] | 20 to 85 | > 1000 | ≤ 316
Nc1c(C(=O)NCC(O)(CNC(=O)c2c(Br)cccc2C(F)(F)F)C(F)(F)F)cnn1-c1ccc(F)cc1 (racemic) [Example 45 (racemic), 5-Amino-N-{2-[({[2-bromo-6-(trifluoromethyl)phenyl]carbonyl}amino)methyl]-3,3,3-trifluoro-2-hydroxypropyl}-1-(4-fluorophenyl)-1H-pyrazole-4-carboxamide] | 20 to 85 | > 1000 | ≤ 316
Nc1c(C(=O)NCC(O)(CNC(=O)c2c(Cl)cccc2Cl)C(F)(F)F)cnn1-c1ccc(F)cc1 (single isomer, unassigned) [Example 3 Enantiomer 1, 5-Amino-N-[2-({[(2,6-dichlorophenyl)carbonyl]amino}methyl)-3,3,3-trifluoro-2-hydroxypropyl]-1-(4-fluorophenyl)-1H-pyrazole-4-carboxamide] | 20 to 85 | > 1000 | ≤ 316
CCN(CC(O)(CNC(=O)c1cnn(-c2ccc(F)cc2)c1N)C(F)(F)F)C(=O)c1ccccc1S(C)(=O)=O (single isomer, unassigned) [Example 10 Enantiomer 1, 5-Amino-N-{2-[(ethyl{[2-(methylsulfonyl)phenyl]carbonyl}amino)methyl]-3,3,3-trifluoro-2-hydroxypropyl}-1-(4-fluorophenyl)-1H-pyrazole-4-carboxamide] | > 85 | > 1000 | ≤ 316
Nc1c(C(=O)NCC(O)(CNC(=O)c2c(Br)cccc2Br)C(F)(F)F)cnn1-c1ccc(F)cc1 (single isomer, unassigned) [Example 11 Enantiomer 1, 5-Amino-N-[2-({[(2,6-dibromophenyl)carbonyl]amino}methyl)-3,3,3-trifluoro-2-hydroxypropyl]-1-(4-fluorophenyl)-1H-pyrazole-4-carboxamide] | 20 to 85 | > 1000 | ≤ 316
Nc1c(C(=O)NCC(O)(CNC(=O)c2c(Cl)cccc2Br)C(F)(F)F)cnn1-c1ccc(F)cc1 (single isomer, unassigned) [Example 12 Enantiomer 1, 5-Amino-N-[2-({[(2-bromo-6-chlorophenyl)carbonyl]amino}methyl)-3,3,3-trifluoro-2-hydroxypropyl]-1-(4-fluorophenyl)-1H-pyrazole-4-carboxamide] | 20 to 85 | > 1000 | ≤ 316
